# Data from ChEMBL document CHEMBL4325916, “Isoform selective PLD inhibition by novel, chiral 2,8-diazaspiro[4.5]decan-1-one derivatives” (Bioorg Med Chem Lett, 2018).
# Assays:
# Phospholipase D1 [1] = target: T1, Phospholipase D1 (Homo sapiens, UniProt Q13393); assay: Inhibition of PLD1 in human Calu1 cells; assay type: cell-based
# T1 sequence (Q13393 whole entry): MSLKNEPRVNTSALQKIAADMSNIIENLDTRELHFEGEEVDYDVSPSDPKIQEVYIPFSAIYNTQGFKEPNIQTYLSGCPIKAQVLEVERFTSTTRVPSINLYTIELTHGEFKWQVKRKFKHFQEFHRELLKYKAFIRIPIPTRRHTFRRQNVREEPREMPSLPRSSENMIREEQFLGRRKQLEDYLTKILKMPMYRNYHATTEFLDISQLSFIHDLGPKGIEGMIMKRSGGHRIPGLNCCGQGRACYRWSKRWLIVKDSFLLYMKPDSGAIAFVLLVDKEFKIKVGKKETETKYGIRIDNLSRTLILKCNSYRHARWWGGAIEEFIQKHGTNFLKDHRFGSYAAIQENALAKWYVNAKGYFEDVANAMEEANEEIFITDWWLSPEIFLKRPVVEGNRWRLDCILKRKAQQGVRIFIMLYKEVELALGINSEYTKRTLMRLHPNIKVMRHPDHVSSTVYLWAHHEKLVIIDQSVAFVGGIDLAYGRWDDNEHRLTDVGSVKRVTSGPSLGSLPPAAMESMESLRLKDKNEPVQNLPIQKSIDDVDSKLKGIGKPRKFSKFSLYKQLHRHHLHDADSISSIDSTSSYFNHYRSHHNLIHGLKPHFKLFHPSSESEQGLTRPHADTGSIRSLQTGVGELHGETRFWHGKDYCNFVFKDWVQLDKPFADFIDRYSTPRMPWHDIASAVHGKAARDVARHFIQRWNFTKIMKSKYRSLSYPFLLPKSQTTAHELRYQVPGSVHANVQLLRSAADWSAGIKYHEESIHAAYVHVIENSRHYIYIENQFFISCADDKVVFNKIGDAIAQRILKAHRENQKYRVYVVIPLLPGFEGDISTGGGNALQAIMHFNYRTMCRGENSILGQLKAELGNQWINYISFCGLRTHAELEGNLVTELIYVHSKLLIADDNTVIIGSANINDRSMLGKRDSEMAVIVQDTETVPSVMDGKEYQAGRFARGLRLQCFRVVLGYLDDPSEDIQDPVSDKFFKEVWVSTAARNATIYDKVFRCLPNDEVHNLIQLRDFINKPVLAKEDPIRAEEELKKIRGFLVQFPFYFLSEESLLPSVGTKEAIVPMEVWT
# Phospholipase D2 [2] = target: T2, Phospholipase D2 (Homo sapiens, UniProt O14939); assay: Inhibition of GFP-fused PLD2 (unknown origin) expressed in HEK293 cells by cellular assay; assay type: cell-based
# [3] = Volume of distribution at steady state in rat at […], iv administered as cassette dose; assay type: ADME, organism-based; conditions: in vivo, read-out: Vdss
# [4] = Fraction unbound in rat brain; assay type: ADME, tissue-based
# [5] = […] clearance in rat at […], iv administered as cassette dose; assay type: ADME, organism-based; conditions: in vivo
# [6] = Fraction unbound in rat plasma; assay type: ADME, cell-free
# [7] = Fraction unbound in human plasma; assay type: ADME, cell-free
# [8] = Half life in rat at […], iv administered as cassette dose; assay type: ADME, organism-based; conditions: in vivo
# Homo sapiens = organism: Homo sapiens; assay: Selectivity ratio of IC50 for […] (unknown origin) to IC50 for […] (unknown origin)
# Phospholipase D1 [9] = target: T1, Phospholipase D1
# Description: Inhibition of PLD1 (unknown origin)
# Phospholipase D2 [10] = target: T2, Phospholipase D2
# Description: Inhibition of PLD2 (unknown origin)
# T2 sequence (O14939 whole entry, the tested form may be a part): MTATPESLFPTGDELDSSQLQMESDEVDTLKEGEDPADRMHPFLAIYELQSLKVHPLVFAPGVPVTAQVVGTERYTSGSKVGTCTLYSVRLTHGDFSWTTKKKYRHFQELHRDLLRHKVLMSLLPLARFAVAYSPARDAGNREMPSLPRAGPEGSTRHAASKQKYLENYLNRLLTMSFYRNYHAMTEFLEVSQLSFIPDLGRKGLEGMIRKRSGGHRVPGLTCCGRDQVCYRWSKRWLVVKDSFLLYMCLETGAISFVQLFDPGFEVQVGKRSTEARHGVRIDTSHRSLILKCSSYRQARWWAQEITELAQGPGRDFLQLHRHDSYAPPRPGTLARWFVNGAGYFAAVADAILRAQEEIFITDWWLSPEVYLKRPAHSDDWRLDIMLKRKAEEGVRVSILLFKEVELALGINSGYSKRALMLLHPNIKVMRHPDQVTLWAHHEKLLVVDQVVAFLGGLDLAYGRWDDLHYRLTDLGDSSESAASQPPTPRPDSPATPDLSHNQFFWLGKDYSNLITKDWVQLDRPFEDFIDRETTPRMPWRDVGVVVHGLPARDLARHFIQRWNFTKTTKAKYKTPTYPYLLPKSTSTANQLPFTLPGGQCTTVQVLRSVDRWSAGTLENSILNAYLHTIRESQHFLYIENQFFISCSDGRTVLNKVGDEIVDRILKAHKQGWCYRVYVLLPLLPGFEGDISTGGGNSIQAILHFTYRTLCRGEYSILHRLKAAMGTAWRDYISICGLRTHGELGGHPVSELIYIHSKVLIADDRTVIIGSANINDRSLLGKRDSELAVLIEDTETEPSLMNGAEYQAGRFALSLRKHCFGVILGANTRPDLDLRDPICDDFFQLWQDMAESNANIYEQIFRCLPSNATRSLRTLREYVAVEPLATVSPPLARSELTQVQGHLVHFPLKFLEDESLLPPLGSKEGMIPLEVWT
SMILES,Fu [4],Fu [6],Fu [7],IC50 (Phospholipase D1 [1]),IC50 (Phospholipase D2 [2]),further results
C[C@@H](CN1CCC2(CC1)C(=O)NC[C@H]2c1ccc(F)cc1)NC(=O)C#Cc1ccccc1,–,–,–,16 nM,150 nM,–
C[C@@H](CN1CCC2(CC1)C(=O)NC[C@@H]2c1ccc(F)cc1)NC(=O)c1cc2ccccc2[nH]1,–,–,–,16 nM,140 nM,–
C[C@@H](CN1CCC2(CC1)C(=O)NC[C@H]2c1ccc(F)cc1)NC(=O)c1ccc(F)cc1,–,–,–,250 nM,210 nM,–
C[C@@H](CN1CCC2(CC1)C(=O)NC[C@@H]2c1ccc(F)cc1)NC(=O)C#Cc1ccccc1,–,–,–,320 nM,4000 nM,–
O=C(NCCN1CCC2(CC1)C(=O)NC[C@@H]2c1ccc(F)cc1)c1cc2ccccc2[nH]1,–,–,–,320 nM,43 nM,–
O=C(C#Cc1ccccc1)NCCN1CCC2(CC1)C(=O)NC[C@@H]2c1ccc(F)cc1,–,–,–,6400 nM,810 nM,–
O=C(NCCN1CCC2(CC1)C(=O)NCN2Cc1cccnc1)c1ccc2ccccc2c1,–,–,–,–,–,Ratio IC50 (Homo sapiens): > 80; IC50 (Phospholipase D1 [9]): > 30000 nM; IC50 (Phospholipase D2 [10]): 360 nM
C[C@@H](CN1CCC2(CC1)C(=O)NC[C@@H]2c1ccc(F)cc1)NC(=O)c1ccc(F)cc1,–,–,–,1700 nM,2800 nM,–

# Now from value to compound, other results behind:
Fu [4],Fu [6],Fu [7],SMILES,IC50 (Phospholipase D1 [1]),IC50 (Phospholipase D2 [2]),further results
2.7%,24.6%,10.8%,O=C(NCCN1CCC2(CC1)C(O)=NC[C@H]2c1ccc(F)cc1)c1ccc(F)cc1,–,–,Vd [3]: 56 L/kg; CLH [5]: 250 mL/min/kg; half-life [8]: 3.2 h
0.4%,13%,13.6%,C[C@@H](CN1CCC2(CC1)C(=O)NC[C@H]2c1ccc(F)cc1)NC(=O)c1cc2ccccc2[nH]1,1 nM,12 nM,–
0.4%,19.8%,12.4%,O=C(NCCN1CCC2(CC1)C(=O)NC[C@H]2c1ccc(F)cc1)c1cc2ccccc2[nH]1,21 nM,2.5 nM,Vd [3]: 80 L/kg; CLH [5]: 340 mL/min/kg; half-life [8]: 3.63 h
1.3%,16%,13.8%,O=C(C#Cc1ccccc1)NCCN1CCC2(CC1)C(=O)NC[C@H]2c1ccc(F)cc1,1200 nM,70 nM,–
0.3%,6.1%,4.5%,C[C@@H](CN1CCC2(CC1)C(=O)NC[C@H]2c1ccc(F)cc1)NC(=O)c1ccc2ccccc2c1,820 nM,26 nM,–
2.6%,31.4%,12.2%,O=C(NCCN1CCC2(CC1)C(O)=NC[C@H]2c1ccc(F)cc1)c1cnc2ccccc2c1,–,–,–
